# Test results published in Sander's compilation of Henry's law constants (doi:10.1002/jsfa.1137).
# Assay: Henry solubility constant Hcp at 310 K (mol/(m3 Pa))
# Conditions: reference: van Ruth et al. (2002)
row,SMILES,Henry solubility constant Hcp at 310 K
1,CSC [dimethyl sulfide],0.0064
2,CCCCCC(C)=O [2-heptanone],0.039
3,CCCCCCC(C)=O [2-octanone],0.029
4,CCCCCCC=O [heptanal],0.02
5,CCCC(=O)OCC [ethyl butanoate],0.021
6,CCCCCCCCC(C)=O [2-decanone],0.018
7,CCCOC(C)=O [propyl ethanoate],0.039
8,CCCCCCCC=O [octanal],0.021
9,CCCCOC(C)=O [butyl ethanoate],0.028
10,CCOC(C)=O [ethyl ethanoate],0.039

# Other lines, results leading:
row,Henry solubility constant Hcp at 310 K,SMILES
1,0.065,CCCCCCCC(C)O (stereo not given) [2-nonanol]
2,0.25,CCCCCCO [1-hexanol]
3,0.3,CCCC(C)O (stereo not given) [2-pentanol]
4,0.33,CC(C)CCO [3-methyl-1-butanol]
5,0.32,CCCO [1-propanol]
